Tests used:
[1] = rats; cited from earlier work
[2] = in vivo

SMILES	Concentration in ISF compared to serum [1]	Caffeine pharmacokinetic parameters sampled in plasma or ISF [2]
CC/N=c1\cc2oc3cc(NCC)c(C)cc3c(-c3ccccc3C(=O)OCC)c-2cc1C [rhodamine 6G]	lower than in serum	
Cn1c(=O)c2c(ncn2C)n(C)c1=O [caffeine]		not significantly different

From paper PMC7871333 (Science translational medicine, 2020)
